In data set [1] the target is D2HGlo (Variant 2, SEQ ID NO: 4; Variant 2 truncated DhdR SEQ ID NO: 2, two residues removed from each terminus, between ECFP and cpVenus173) (Achromobacter denitrificans, UniProt A0ABZ3FXY3). In kind it is binding, Achromobacter denitrificans NBRC 15125. The conditions noted are these: concentrations up to 100 μM.
Data set [2] deals with IDH1 wildtype U87MG cells. As to the kind of experiment: Live-cell D2HGlo FRET ratio after inhibitor treatment, wildtype cells. In kind it is cell-based, human. On the procedure:
(A) Left: Representative image of a wild-type IDH1 U87MG cell expressing Cyto-D2HGlo. Scale bar is 25 μm. […] (B) Left: Representative image of a wild-type IDH1 U87 clel cell expressing Nuc-D2HGlo. Scale bar is 25 μm. […] (C) Left: Representative image of a wild-type IDH1 U87 cell expressing Mito-D2HGlo. Scale bar is 25 μm.
(§1) Statistical analysis was performed using a one-way ANOVA test with post hoc Tukey (**, P<0.01; *, P<0.05). […] Statistical analysis was performed using a one-way ANOVA test with post hoc Tukey (*, P<0.05);
Fluorescence Live-Cell Imaging.

Data set [3] relates to IDH1 wildtype U87MG cells. The data set can be described thus: D-2-HG concentration in cell culture supernatant measured with purified D2HGlo, wildtype cells. It is filed as cell-based, human. How it is done:
as §1
Both cell lines were left untreated or exposed to AG-120 (3 μM) for 48 hours prior to measurements. (B) Titration of purified D2HGlo with increasing concentrations of D-2-HG (100 nM-1 mM) spiked into human serum. […] (D) Titration of purified D2HGlo with increasing concentrations of D-2-HG (100 nM-1 mM) spiked into human urine. […] (F) Titration of purified D2HGlo with increasing concentrations of D-2-HG (100 nM-1 mM) spiked into aCSF.
Cell Culture Supernatant: U87MG IDH1 wildtype and mutant cells were plated at 60% confluence in 6-well plates. For some experiments, AG-120 in DMSO (3 μM), Glutaminase inhibitor (1 μM), or 2-DG (10 mM) was added to the cell culture media before plating the cells. For all conditions and cell lines, the cell culture supernatant was collected after 48 hours of incubation at 37° C. 10 μL of cell culture media was mixed with 90 μL of purified D2HGlo (5 μM), and the FRET ratios were collected. D-2-HG levels were estimated by using the titration curve as a calibration curve and converting the FRET ratios of unknowns into concentrations. Biological Fluids: Urine and serum were collected from three healthy donors while aCSF was purchased (Tocris Bioscience).

In a further data set the test system is 2-HG. The conditions noted are these: newly diagnosed and advanced cancer; cited from earlier work.
In data set [4] the test system is IDH1 wildtype U87MG cells. The data set can be described thus: FRET imaging of D2HGlo in IDH1 wildtype U87MG cells. It is filed as cell-based, human. The conditions noted are these: Compound 968 1 μM, approx. 5.5 minutes. On the procedure: . […] . This evidence further supports the specificity of D2HGlo to endogenous D-2-HG in situ. […] . […] .
The inventors utilized the glutaminase C inhibitor Compound 968 and 2-Deoxy-D-glucose (2-DG), an inhibitor of glycolysis. […] . Cell Culture and Transfection. […] Cells were transfected 24 hours after plating with 1.0 μg D2HGlo constructs and 3.0 μL Trans-IT®-LT1 transfection reagent (Mirus Bio, Madison, WI). The cells were allowed to express for 48 hours before imaging.
Fluorescence Live-Cell Imaging. […] The standard imaging parametersD2HGlo sensors were: 457 excited at 458 nm laser line and 482 nm and 531 nm and the fluorescent signal was collected using a BA 480-495 emission filter (ECFP) and a BA 535-565 emission filter (FRET). The FRET ratio was determined by dividing the FRET signal by the ECFP signal. […] . The maximum FRET ratio was determined for the entire time-course and normalized to the baseline FRET ratio. […] A region of interest was drawn on each cell, and the average FRET ratio within each ROI was determined. In some sets of experiments, cells were treated with AG-120 (3 μM) for 48 hours prior to FRET ratio collection. Alternatively, glutaminase inhibitor (1 μM), or 2-DG (10 mM) were added to imaging wells after collecting baseline FRET values for 30 seconds.

The conditions of data set [5]: several freeze-thaw cycles or exposure to excess heat; cited from earlier work.

Structures are written as SMILES. Like-named read-outs stand apart in the source and are kept apart here.

The source of these data is patent US20250314656A1, “GENETICALLY ENCODED FLUORESCENT INDICATOR OF D-2-HYDROXYGLUTARATE” (priority 2024, published 2025).

For `O=C(O)CC(O)C(=O)O` (racemic) [Malate, sodium hydrogen DL-malate], the “response of D2HGlo (FRET ratio) to metabolite” value (“response of D2HGlo (FRET ratio)” below) in data set [1] is “does not respond”.
In the case of `N#Cc1ccnc(N2C(=O)CC[C@H]2C(=O)N(c2cncc(F)c2)[C@H](C(=O)NC2CC(F)(F)C2)c2ccccc2Cl)c1` [AG-120], the “effect on D-2-HG levels” value in data set [2] (AG-120 3 μM for 48 hours) is “had no effect on D-2-HG levels”. Further, the “D-2-HG concentration in supernatant” value in data set [3] (AG-120 3 μM for 48 hours) turned out to be 2.79 ± 0.41 µM. Further, in the data set on 2-HG, the “effect on 2-HG levels in patients” value is given as “reduction of 2-HG to levels similar to those seen in healthy populations”.
With `O=C(O)CC(O)(CC(=O)O)C(=O)O` [Citrate], the “response of D2HGlo (FRET ratio)” value in data set [1] was “does not respond”.
With `CN(C)c1ccc(C2Nc3ccc4ccccc4c3C3=C2C(=O)CC(C)(C)C3)cc1Br` (stereo not shown) [Compound 968], the “D-2-HG accumulation in supernatant” value in data set [3] (Compound 968 1 μM for 48 hours) was “nor did it affect D-2-HG accumulation in cell culture supernatants”. The “acute change of FRET ratio (Cyto-D2HGlo)” value in data set [4] is “did not elicit any changes in FRET ratio”.
On to `N[C@@H](CCC(=O)O)C(=O)O` [Glutamate, L-glutamic acid], for which the “response of D2HGlo (FRET ratio)” value in data set [1] is listed as “does not respond”; in data set [1] (listed as glutamate), “did not respond”.
For `C[C@H](O)C(=O)O` [Lactate, sodium L-lactate], the “response of D2HGlo (FRET ratio)” value is recorded as “does not respond” in data set [1] and “did not respond” in data set [1] (listed as lactate).
Turning to `O=C(O)CC(=O)C(=O)O` [Oxaloacetate, Oxaloacetic acid], the “response of D2HGlo (FRET ratio)” value in data set [1] is on record as “does not respond”.
Take `O=C(O)CCC(=O)O` [Succinate, succinic acid]: the “response of D2HGlo (FRET ratio)” value in data set [1] is “does not respond”.
As to `O=CC[C@@H](O)[C@H](O)[C@H](O)CO` [Variant 2-DG, 2-Deoxy-D-glucose], the “acute change of Cyto-D2HGlo FRET ratio” value in data set [2] (2-DG 10 mM, approximately 5.5 minutes) was “unaffected”.
Turning to `O=C(O)CC[C@@H](O)C(=O)O` [Variant D-2-HG, D-2-hydroxyglutarate], the “stability in biological fluids” value in data set [5] is “remains stable”.
As for `O=C(O)CCC(=O)C(=O)O` [α-ketoglutarate, α-ketoglutaric acid], in data set [1], the “response of D2HGlo (FRET ratio)” value is “does not respond”.
